Assay [1] addresses human recombinant LPA1 Lysophospholipid receptor (Homo sapiens, UniProt Q92633). Briefly: Calcium flux assay using FLIPR, LPA1 antagonist activity. It counts as cell-based. The following applies: ChemiScreen Calcium-optimized stable cell line; antagonist mode, inhibition of agonist-induced calcium flux. The protocol:
(§1) Calcium Flux Assay Using Fluorometric Imaging Plate Reader (FLIPR)
Cell Culture Conditions: The ChemiScreen Calcium-optimized stable cell line containing the human recombinant LPA1 Lysophospholipid receptor was purchased from Chemicon International, Inc./Millipore. The cells were cultured in DMEM-high glucose supplemented with 10% fetal bovine serum, 2 mM glutamine, 100 U/mL penicillin/100 μg/mL streptomycin, 1× non-essential amino acids, 10 mM HEPES and 0.25 mg/mL Geneticin. Cells were harvested with trypsin-EDTA and counted using ViaCount reagent. The cell suspension volume was adjusted to 2.0×10^5 cells/mL with complete growth media. Aliquots of 50 μL were dispensed into 384 well black/clear tissue culture treated plates (BD) and the microplates were placed in a 37° C. incubator overnight. The following day plates were used in the assay.
(§2) Dye Loading and Assay: Loading Buffer (FLIPR Calcium-4, Molecular Devices) was prepared by dissolving the contents of one bottle into 100 mL Hank's Balanced Salt Solution containing 20 mM HEPES and 2.5 mM probenecid. Plates were loaded onto Biotek plate washer and growth media was removed and replaced with 20 μL of Hank's Balanced Salt Solution containing 20 mM HEPES and 2.5 mM probenecid, followed by 25 μL of Loading Buffer. The plates were then incubated for 30 minutes at 37° C.
During the incubation, test compounds were prepared by adding 90 μL of HBSS/20 mM HEPES/0.1% BSA buffer to 2 μL of serially diluted compounds. To prepare serial dilutions, 10 mM stocks of compounds were prepared in 100% DMSO.
After incubation, both the cell and “assay” plates were brought to the FLIPR and 20 μL of the diluted compounds were transferred to the cell plates by the FLIPR. Compound addition was monitored by FLIPR to detect any agonist activity of the compounds. Plates were then incubated for 30 minutes at room temperature protected from light. […] During the assay, fluorescence readings were taken simultaneously from all 384 wells of the cell plate every 1.5 seconds. Five readings were taken to establish a stable baseline, then 20 μL of sample was rapidly (30 μL/sec) and simultaneously added to each well of the cell plate. The fluorescence was continuously monitored before, during and after sample addition for a total elapsed time of 100 seconds. Responses (increase in peak fluorescence) in each well following agonist addition was determined. The initial fluorescence reading from each well, prior to ligand stimulation, was used as zero baseline value for the data from that well. The responses were expressed as % inhibition of the buffer control.
A general note: Calcium assays in cells follow changes in intracellular calcium, usually with a dye or a luminescent sensor.

A further assay addresses T1, LPA3 (Homo sapiens, UniProt Q9UBY5).
T1 sequence (Q9UBY5 1-353): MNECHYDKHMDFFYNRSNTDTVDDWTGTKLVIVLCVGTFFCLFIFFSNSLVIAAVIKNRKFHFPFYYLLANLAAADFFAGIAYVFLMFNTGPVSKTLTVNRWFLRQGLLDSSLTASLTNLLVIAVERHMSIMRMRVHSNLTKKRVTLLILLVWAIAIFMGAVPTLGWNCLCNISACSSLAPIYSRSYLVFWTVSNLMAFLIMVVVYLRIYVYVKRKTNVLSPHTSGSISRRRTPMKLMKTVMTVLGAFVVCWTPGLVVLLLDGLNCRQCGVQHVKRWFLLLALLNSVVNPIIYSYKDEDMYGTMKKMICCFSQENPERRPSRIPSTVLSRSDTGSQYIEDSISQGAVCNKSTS
In words: Calcium flux assay using FLIPR, LPA3 antagonist activity. It counts as cell-based. The following applies: antagonist activity. The protocol: as §1, §2
During the incubation, test compounds were prepared by adding 90 μL of HBSS/20 mM HEPES/0.1% BSA buffer to 2 μL of serially diluted compounds. To prepare serial dilutions, 10 mM stocks of compounds were prepared in 100% DMSO. The compound dilution plate was set up as follows: well #1 received 29 μL of stock compound and 31 μL DMSO; wells 2-10 received 40 μL of DMSO; mixed and transferred 20 μL of solution from well #1 into well #2; continued with 1:3 serial dilutions out 10 steps; transferred 2 μL of diluted compound into duplicate wells of 384 well “assay plate” and then added the 90 μL of buffer.
After incubation, both the cell and “assay” plates were brought to the FLIPR and 20 μL of the diluted compounds were transferred to the cell plates by the FLIPR. Compound addition was monitored by FLIPR to detect any agonist activity of the compounds. Plates were then incubated for 30 minutes at room temperature protected from light. After the incubation, plates were returned to the FLIPR and 20 μL of 4.5× concentrated agonist was added to the cell plates. During the assay, fluorescence readings were taken simultaneously from all 384 wells of the cell plate every 1.5 seconds. Five readings were taken to establish a stable baseline, then 20 μL of sample was rapidly (30 μL/sec) and simultaneously added to each well of the cell plate. The fluorescence was continuously monitored before, during and after sample addition for a total elapsed time of 100 seconds. Responses (increase in peak fluorescence) in each well following agonist addition was determined. The initial fluorescence reading from each well, prior to ligand stimulation, was used as zero baseline value for the data from that well. The responses were expressed as % inhibition of the buffer control.

Among the data in patent US20150133512A1, “N-ARYLTRIAZOLE COMPOUNDS AS LPAR ANTAGONISTS” (Hoffmann-La Roche Inc,, priority 2012, published 2015) are IC50 values, retold here.

Some results are limits rather than exact numbers.

Sequence of human recombinant LPA1 Lysophospholipid receptor (Q92633 whole entry): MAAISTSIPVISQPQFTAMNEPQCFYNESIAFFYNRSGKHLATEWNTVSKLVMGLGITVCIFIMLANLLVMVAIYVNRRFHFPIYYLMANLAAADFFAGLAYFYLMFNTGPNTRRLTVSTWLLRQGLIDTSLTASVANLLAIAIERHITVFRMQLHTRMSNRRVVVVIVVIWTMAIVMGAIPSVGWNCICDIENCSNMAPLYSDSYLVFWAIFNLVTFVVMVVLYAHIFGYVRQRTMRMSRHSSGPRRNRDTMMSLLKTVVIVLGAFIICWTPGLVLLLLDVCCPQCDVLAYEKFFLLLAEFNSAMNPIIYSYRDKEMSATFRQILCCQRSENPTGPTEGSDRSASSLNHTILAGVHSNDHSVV

In the case of `Cc1nnn(-c2ccc(-c3ccc(C4(C(=O)O)CC4)cc3)cc2)c1NC(=O)O[C@H](C)c1ccccc1` [Example 1, 1-{4′-[4-Methyl-5-((R)-1-phenyl-ethoxycarbonylamino)-[1,2,3]triazol-1-yl]-biphenyl-4-yl}-cyclopropanecarboxylic acid], the IC50 in assay [1] was 0.025 µM; on LPA3, more than 30 µM.

Turning to `Cc1nnn(-c2ccc(-c3ccc(C4(C(=O)O)CC4)cc3)cc2)c1NC(=O)OC(C)C1CC1` (centres unmarked) [Example 12, 1-{4′-[5-(1-Cyclopropyl-ethoxycarbonylamino)-4-methyl-[1,2,3]triazol-1-yl]-biphenyl-4-yl}-cyclopropanecarboxylic acid], the half-inhibitory concentration (IC50) in assay [1] was 0.134 µM; on LPA3 it was more than 30 µM. In the case of `C=CCC(C(=O)O)c1ccc(-c2ccc(-n3nnc(C)c3NC(=O)O[C@H](C)c3ccccc3)cc2)cc1` (stereo partly drawn) [Example 33, (R)-2-{4′-[4-Methyl-5-(-1-phenylethoxycarbonylamino)-[1,2,3]triazol-1-yl]-biphenyl-4-yl}-pent-4-enoic acid], the figures for the IC50 (in assay [1]; at LPA3) were 0.088 µM and more than 30 µM, respectively.

As to `Cc1nnn(-c2ccc(-c3ccc(C4(C(=O)O)CCC4)cc3)cc2)c1NC(=O)O[C@H](C)c1ccccc1` (single isomer, unassigned) [Example 32], the IC50 in assay [1] was 0.174 µM; on LPA3 it was more than 30 µM. For the molecule `Cc1nnn(-c2cccc(-c3ccc(C4(C(=O)O)CC4)cc3)c2)c1NC(=O)O[C@H](C)c1ccccc1` [Example 25, 1-{3′-[4-Methyl-5-((R)-1-phenyl-ethoxycarbonylamino)-[1,2,3]triazol-1-yl]-biphenyl-4-yl}-cyclopropanecarboxylic acid], the IC50 (in assay [1]; at LPA3) was more than 30 µM each time. In the case of `CCc1nnn(-c2ccc(-c3ccc(C4(C(=O)O)CC4)cc3)cc2)c1NC(=O)O[C@H](C)c1cccc(C(F)(F)F)c1` [Example 19, 1-(4′-{4-Ethyl-5-[(R)-1-(3-trifluoromethyl-phenyl)-ethoxycarbonylamino]-[1,2,3]triazol-1-yl}-biphenyl-4-yl)-cyclopropanecarboxylic acid], the IC50 turned out to be 0.412 µM in assay [1] and 4.82 µM on LPA3.

Take `Cc1nnn(-c2ccc(-c3ccc(C4(C(=O)O)CC4)cc3)cc2)c1NC(=O)OC(C)(C)C` [Example 14, 1-[4′-(5-tert-Butoxycarbonylamino-4-methyl-[1,2,3]triazol-1-yl)-biphenyl-4-yl]-cyclopropanecarboxylic acid]: the concentration for half-maximal inhibition (IC50) in assay [1] was 0.985 µM; on LPA3, more than 30 µM.

As for `Cc1nnn(-c2ccc(-c3ccc(C4(C(=O)O)CC4)cc3)cc2)c1NC(=O)OC(C)C1CCC1` (centres unmarked) [Example 13, 1-{4′-[5-(1-Cyclobutyl-ethoxycarbonylamino)-4-methyl-[1,2,3]triazol-1-yl]-biphenyl-4-yl}-cyclopropanecarboxylic acid], the IC50 in assay [1] was 0.161 µM; on LPA3, more than 30 µM. As for `Cc1nnn(-c2ccc(-c3ccc(C4(C(=O)NS(C)(=O)=O)CC4)cc3)cc2)c1NC(=O)O[C@H](C)c1cccc(C(F)(F)F)c1` [Example 35, {3-[4′-(1-Methanesulfonylaminocarbonyl-cyclopropyl)-biphenyl-4-yl]-5-methyl-3H[1,2,3]triazol-4-yl}-carbamic acid (R)-1-(3-trifluoromethyl-phenyl)-ethyl ester], the IC50 in assay [1] was found to be 4.53 µM; on LPA3, 5.74 µM. Regarding `Cc1nnn(-c2ccc(-c3ccc(C4(C(=O)O)CC4)cc3)cc2)c1NC(=O)O[C@H](C)c1ccccc1F` [Example 5, 1-(4′-{5-[(R)-1-(2-Fluoro-phenyl)-ethoxycarbonylamino]-4-methyl-[1,2,3]triazol-1-yl}-biphenyl-4-yl)-cyclopropanecarboxylic acid], the IC50 at LPA3 is more than 30 µM. As to `Cc1nnn(-c2ccc(-c3ccc(C4(c5nnn[nH]5)CC4)cc3)cc2)c1NC(=O)O[C@H](C)c1ccccc1` [Example 29, (R)-1-Phenyl-ethyl-1-(4′-(1-(1H-tetrazol-5-yl)cyclopropyl)biphenyl-4-yl)-4-methyl-1H-1,2,3-triazol-5-ylcarbamate], the IC50 at LPA3 is more than 30 µM.

The IC50 is the concentration that gives 50% inhibition.
